Like-named read-outs stand apart in the source and are kept apart here.
Tests used:
NCI-H82 = assay: cells; assay type: cell-based, human; conditions: for IC50: assay duration 72 h
Experimental: The purpose of this study was to determine the receptor-dependent inhibition of proliferation in vitro by the somatostatin targeting conjugate Conjugate 57 and determine the sensitivity to DM1 in the human SSTR2 expressing cancer cell lines: NCI-H69, NCI-H82, NCI-H727 and HCC-33. Cells were incubated with Conjugate 57 for 6 hours, in the presence or absence of an excess of octreotide, a somatostatin analogue. A three-fold serial dilution of Conjugate 57 was used for a total of ten concentration points. After treatment, cells were washed, incubated for an additional period of time, either 72 or 96 hours and proliferation was measured using the CellTiter-Glo® Luminescent Cell Viability Assay. The IC50 of Conjugate 57 was used to determine the inhibiting activity in proliferation assays. To determine DM1 sensitivity a similar method to the Conjugate 57 assay was employed with the additional incubation time points of 30 minutes, 1, 2, and 4 hours and the exclusion of the pre-treatment with octreotide. DM1 effect from the most to least sensitive cell line was determined to be: NCI-H69>HCC-33>NCI-H82>NCI-H727 (Table 5B). […] The addition of excess octreotide (100 μM) competes with Conjugate 57 for binding to the SSTR2 receptor. […] In the NCI-H69 experiments, pre-incubation with an excess of octreotide modestly diminished the activity of Conjugate 57 by 1.6 and 2.4 fold, depending on the assay conditions. In the HCC-33 cell line, activity of Conjugate 57 was 3.2 (±1.4) times higher when dosed alone, compared to when the cells were pre-incubated with octreotide. The small but measureable changes in Conjugate 57 activity in the presence of excess octreotide seen in the NCI-H69 and HCC-33 cell lines supports the receptor dependence of the Conjugate 57 antiproliferative effect seen in vitro. In summary, although all the cell lines tested in these experiments express the SSTR2 protein, they have different levels of sensitivity to the Conjugate 57 conjugate of which the DM1 sensitivity may be a contributing factor.

NCI-H69 xenograft = assay: NCI-H69 lung xenograft efficacy, formulations and schedules; assay type: in vivo, mice; conditions: for MTV (Mean Tumor Volume): total dose 2.0 mg/kg; for MTV (Mean Tumor Volume) / mice with complete tumor regression: Day 21
Experimental: A further NCI-H69 study design included Conjugate 57 dosed iv at 1.0 mg/kg formulated in propylene glycol (PG), 1.0 mg/kg formulated in Solutol HS15, 0.5 mg/kg formulated in Solutol HS15 dosed twice per week, and 0.33 mg/kg formulated in Solutol HS15 dosed three times per week. A comparator group was dosed with SOC cisplatin dosed iv at 5.0 mg/kg once per week/etoposide dosed ip at 8.0 mg/kg three times per week over two weeks. A negative control vehicle was dosed with the Solutol HS 15 vehicle. All groups contained 10 animals.

SSTR3 = SSTR3 (Homo sapiens, UniProt P32745); assay: Affinity profile (half-maximal inhibitory concentration), SSTR3; assay type: binding
SSTR3, sequence (P32745 whole entry): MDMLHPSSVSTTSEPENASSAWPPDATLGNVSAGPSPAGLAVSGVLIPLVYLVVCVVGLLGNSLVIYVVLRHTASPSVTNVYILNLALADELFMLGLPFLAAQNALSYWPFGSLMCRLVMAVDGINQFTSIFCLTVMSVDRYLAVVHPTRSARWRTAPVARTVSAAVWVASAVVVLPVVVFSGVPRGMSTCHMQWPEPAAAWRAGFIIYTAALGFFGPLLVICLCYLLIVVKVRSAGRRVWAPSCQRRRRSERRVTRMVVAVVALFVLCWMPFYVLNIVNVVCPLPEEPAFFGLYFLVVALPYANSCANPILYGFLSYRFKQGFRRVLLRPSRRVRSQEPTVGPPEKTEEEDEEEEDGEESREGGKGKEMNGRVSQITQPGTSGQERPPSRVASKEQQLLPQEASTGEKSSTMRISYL
Text: (§1) DOTATE, also known as DOTA-TATE or DOTA-octreotate, comprises an amide of the acid DOTA, which connects a radionuclide and (Tyr3)-octreotate, a derivative of octreotide. DOTATOC, also known as edotreotide, SMT487, or (DOTA^0-Phe^1-Tyr^3)octreotide, is also an octreotide derivative which can be bound to radionuclides for diagnosis and treatment.

SSTR5 = SSTR5 (Homo sapiens, UniProt P35346); assay: Affinity profile (half-maximal inhibitory concentration), SSTR5; assay type: binding
SSTR5, sequence (P35346 whole entry): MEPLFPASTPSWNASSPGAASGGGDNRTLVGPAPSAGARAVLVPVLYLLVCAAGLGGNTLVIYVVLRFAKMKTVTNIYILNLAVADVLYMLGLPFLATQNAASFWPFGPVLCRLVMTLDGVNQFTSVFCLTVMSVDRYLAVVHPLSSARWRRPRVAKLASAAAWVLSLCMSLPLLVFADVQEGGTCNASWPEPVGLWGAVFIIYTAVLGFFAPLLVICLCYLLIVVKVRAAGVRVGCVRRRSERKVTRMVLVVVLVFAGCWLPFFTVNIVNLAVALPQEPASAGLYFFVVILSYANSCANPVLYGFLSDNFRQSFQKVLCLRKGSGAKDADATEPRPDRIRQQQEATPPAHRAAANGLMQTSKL
Text: as §1

[1] = Pharmacokinetics in patients; assay type: in vivo; conditions: human, venous blood, intravenous; in a patient
Experimental: For C1D1 and C3D1, venous blood samples (4-6 ml) for determination of Conjugate 57, the somatostatin analog peptide component of Conjugate 57 (BT-979), and DM1 (total, unconjugated, and free sulfhydryl) are taken before the start of the infusion, at 0.5 hours (±1 minute) after the start of study drug infusion; precisely at the end of infusion; and 1.5 hours (±5 minutes), 2 hours (±5 minutes), 4 hours (±5 minutes), 6 hours (±5 minutes), 8 hours (±5 minutes), and 10 hours (±5 minutes) after the start of study drug infusion. If the 10 hour time point requires an inpatient admission at the center, the 10 hour time point is not collected. The date and time of collection of each sample are recorded.

[2] = Buffer screening for solution stability; assay type: physicochemical; conditions: acetate buffer versus citrate and phosphate buffers; pH range of 4.0 to 4.8
Text: Conjugate 57 is a free flowing powder. The formulation development of Conjugate 57 was accomplished by screening conditions that would provide stability and tonicity to the drug product solution. […] The buffer is formed by a combination of sodium acetate and acetic acid. In summary, acetate buffer, a commonly used parenteral buffer, is used to dissolve Conjugate 57 and ensure stability at a pH range of 4.0 to 4.8.

SMILES: COc1cc2cc(c1Cl)N(C)C(=O)C[C@H](OC(=O)[C@H](C)N(C)C(=O)CCSSC[C@H](NC(=O)[C@@H]1CSSC[C@H](NC(=O)[C@H](N)Cc3ccccc3)C(=O)N[C@@H](Cc3ccc(O)cc3)C(=O)N[C@H](Cc3c[nH]c4ccccc34)C(=O)N[C@@H](CCCCN)C(=O)N[C@@H]([C@@H](C)O)C(=O)N1)C(N)=O)[C@]1(C)O[C@H]1[C@H](C)[C@@H]1C[C@@](O)(NC(=O)O1)[C@H](OC)/C=C/C=C(\C)C2 [Conjugate 57]
- IC50 (NCI-H82; 5,000 cells/well, excess octreotide (100 μM), read-out: Inhibition of Proliferation IC50 With Octreotide): 0.128 µM
- IC50 (NCI-H82; 5,000 cells/well, read-out: Inhibition of Proliferation IC50 Without Octreotide): 0.106 µM
- IC50 (NCI-H82; 10,000 cells/well, excess octreotide (100 μM), read-out: Inhibition of Proliferation IC50 With Octreotide): 1.29 µM
- IC50 (NCI-H82; 10,000 cells/well, read-out: Inhibition of Proliferation IC50 Without Octreotide): 1.05 µM
- activity in the presence of excess octreotide (NCI-H82; octreotide 100 μM): not decreased
- MTV (Mean Tumor Volume) (NCI-H69 xenograft; 0.33 mg/kg iv in Solutol HS15, 3 doses per week): 330 mm3
- mice with complete tumor regression (NCI-H69 xenograft; 0.33 mg/kg three times per week in Solutol HS15): no mice having complete tumor regressions
- MTV (Mean Tumor Volume) (NCI-H69 xenograft; 0.5 mg/kg iv in Solutol HS15, 2 doses per week): 105 mm3
- mice with complete tumor regression (NCI-H69 xenograft; 0.5 mg/kg twice weekly in Solutol HS15, 10 animals): 1/10
- mice with complete tumor regression (NCI-H69 xenograft; 1.0 mg/kg in PG, 10 animals): 2/10
- mice with complete tumor regression (NCI-H69 xenograft; 1.0 mg/kg in Solutol HS15, 10 animals): 3/10
- MTV (Mean Tumor Volume) (NCI-H69 xenograft; 1.0 mg/kg iv in PG, 1 dose per week): 178 mm3
- MTV (Mean Tumor Volume) (NCI-H69 xenograft; 1.0 mg/kg iv in Solutol HS15, 1 dose per week): 55 mm3
- adverse effects with health observations (NCI-H69 xenograft; NCI-H69 xenograft): No adverse effects
- weight loss (NCI-H69 xenograft; NCI-H69 xenograft, all Conjugate 57 groups): No weight loss
- IC50 (SSTR3): 0.058 µM
- IC50 (SSTR5): 0.024 µM
- half-life [1]: ~1.8 h
- solution stability by buffer [2]: most stability

Reference: US11213590B2, “SSTR-targeted conjugates and particles and formulations thereof” (priority 2016, dated 2022)
